Data taken from paper PMC9217576, “Urease and α-Chymotrypsin Inhibitory Activities and Molecular Docking Studies of Alkaloids Isolated from Medicinal Plant Isatis minima Bunge” (Evidence-based Complementary and Alternative Medicine : eCAM, 2022).
Read-outs that look alike come from different tables or passages of the source.

Assays:
Assay type in all cases: biochemical
[1] = biological target: Bacillus pasteurii urease (Sporosarcina pasteurii, UniProt P41020); experiment: In vitro urease inhibition assay (indophenol method); details: for IC50: SEM of five determinations, pH 6.8, 30°C
Chain of Bacillus pasteurii urease (P41022 whole entry): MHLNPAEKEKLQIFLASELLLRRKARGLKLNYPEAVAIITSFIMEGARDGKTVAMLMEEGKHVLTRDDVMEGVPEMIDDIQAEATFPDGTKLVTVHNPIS
Chain of Bacillus pasteurii urease (P41020 whole entry): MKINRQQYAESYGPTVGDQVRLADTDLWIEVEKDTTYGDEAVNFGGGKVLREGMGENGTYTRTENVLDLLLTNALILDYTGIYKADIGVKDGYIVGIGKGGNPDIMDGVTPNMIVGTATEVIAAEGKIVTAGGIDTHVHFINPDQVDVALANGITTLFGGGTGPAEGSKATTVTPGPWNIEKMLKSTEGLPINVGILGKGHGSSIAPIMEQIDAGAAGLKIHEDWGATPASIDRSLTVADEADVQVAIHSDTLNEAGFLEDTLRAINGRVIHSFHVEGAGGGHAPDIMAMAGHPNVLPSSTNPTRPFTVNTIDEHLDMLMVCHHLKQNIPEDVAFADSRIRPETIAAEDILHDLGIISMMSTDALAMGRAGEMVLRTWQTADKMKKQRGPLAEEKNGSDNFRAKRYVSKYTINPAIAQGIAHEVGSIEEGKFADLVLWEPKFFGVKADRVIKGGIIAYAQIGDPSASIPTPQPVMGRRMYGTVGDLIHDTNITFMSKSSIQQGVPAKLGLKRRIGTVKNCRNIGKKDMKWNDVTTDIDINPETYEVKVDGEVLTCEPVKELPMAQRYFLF
Chain of Bacillus pasteurii urease (P41021 whole entry, further chain): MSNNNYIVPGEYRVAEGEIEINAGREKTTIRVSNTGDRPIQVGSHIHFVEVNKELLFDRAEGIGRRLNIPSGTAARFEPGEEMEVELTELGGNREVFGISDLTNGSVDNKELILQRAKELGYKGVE

[2] = biological target: Jack bean urease (Canavalia ensiformis, UniProt P07374); experiment: biochemical; details: for IC50: SEM of five determinations, pH 6.8, 30°C
Chain of Jack bean urease (P07374 whole entry, looked up): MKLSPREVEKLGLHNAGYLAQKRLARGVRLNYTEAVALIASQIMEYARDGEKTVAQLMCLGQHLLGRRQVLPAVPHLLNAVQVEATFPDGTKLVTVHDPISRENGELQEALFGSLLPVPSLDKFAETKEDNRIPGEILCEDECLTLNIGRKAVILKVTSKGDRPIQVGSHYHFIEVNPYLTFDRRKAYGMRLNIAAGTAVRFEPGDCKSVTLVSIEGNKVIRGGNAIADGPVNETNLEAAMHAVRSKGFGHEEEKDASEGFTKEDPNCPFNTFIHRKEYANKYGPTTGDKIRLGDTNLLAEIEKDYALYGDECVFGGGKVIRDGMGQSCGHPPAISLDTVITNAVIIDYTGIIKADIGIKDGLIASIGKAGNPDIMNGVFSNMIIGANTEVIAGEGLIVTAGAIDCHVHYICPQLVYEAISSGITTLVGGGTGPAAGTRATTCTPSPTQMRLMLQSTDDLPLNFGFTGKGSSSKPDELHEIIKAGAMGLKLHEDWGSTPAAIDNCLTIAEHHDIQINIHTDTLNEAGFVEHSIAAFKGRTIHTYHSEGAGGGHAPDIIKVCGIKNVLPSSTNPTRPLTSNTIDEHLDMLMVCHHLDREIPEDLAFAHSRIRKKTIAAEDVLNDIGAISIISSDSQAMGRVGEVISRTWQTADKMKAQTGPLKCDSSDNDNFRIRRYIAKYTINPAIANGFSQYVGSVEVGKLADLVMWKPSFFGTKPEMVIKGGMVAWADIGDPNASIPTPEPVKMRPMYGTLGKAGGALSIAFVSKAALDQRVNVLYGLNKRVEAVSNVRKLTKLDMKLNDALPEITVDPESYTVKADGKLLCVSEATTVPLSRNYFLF

[3] = biological target: α-chymotrypsin (Bos taurus, UniProt P00766); experiment: In vitro chymotrypsin inhibition assay; details: for IC50: SEM of five determinations, Tris-HCl pH 7.6, 25°C
[4] = read-out: Urease IC50 ± SEM (Bacillus pasteurii urease)
[5] = Urease IC50 ± SEM (Jack bean urease)
[6] = Urease IC50 ± SEM (Bacillus pasteurii urease)

Compound	inhibitory activity against Bacillus pasteurii urease (in words) [1]	IC50 [1, 4] [µM]	inhibitory activity against Jack bean urease (in words) [2]	IC50 [2, 5] [µM]	inhibitory potential against α-chymotrypsin (in words) [3]	IC50 [3] [µM]	IC50 [1, 6] [µM]	IC50 ([2]; read-out: Urease IC50 ± SEM (Jack bean urease)) [µM]
O=C1C(c2[nH]c3ccccc3c2C2=c3ccccc3=N/C2=C2\Nc3ccccc3C2=O)=Nc2ccccc21 [Bisindigotin]	significant inhibitory activity	42.04 ± 0.07	significant inhibitory activity	58.15 ± 0.02	moderate inhibitory potential	34.01 ± 0.07	–	–
O=C1/C(=c2\c3ccccc3n3c(=O)c4ccccc4nc23)Nc2ccccc21 [Candidine]	significant inhibitory activity	–	–	–	moderate inhibitory potential	44.07 ± 0.04	46.12 ± 0.05	–
COc1cc(C2c3c(c4ccccc4[nH]c3=O)C(=O)N3CCCC23)cc(OC)c1O (stereo not shown) [Isaindigotidione]	–	20.04 ± 0.09	–	29.03 ± 0.04	–	16.09 ± 0.07	–	–
COc1cc(/C=C2\CCn3c2nc2ccccc2c3=O)cc(OC)c1O [Isaindigotone]	–	26.13 ± 0.08	–	34.03 ± 0.07	–	22.01 ± 0.06	29.03 ± 0.04	–
NC(N)=S [Thiourea, reference compound]	–	14.03 ± 0.08	–	–	–	–	–	18.04 ± 0.01
